Laboratory results as given in patent EP2440567B1, “SUBSTITUTED 16,17-ANNELLATED STEROID COMPOUNDS FOR USE IN WOMEN'S HEALTHCARE” (priority 2009, dated 2010).

What was measured:
[1] = tested on: pregnant rats; experiment: Embryofetal toxicity study in pregnant rats; type: in vivo, rat
[2] = tested on: endometrium; experiment: 4-week phase I study, endometrial biopsies histopathology; type: in vivo; details: female human volunteers; biopsies on day 29; exposure via oral 10 mg daily Org 41621
[3] = tested on: bone; experiment: AOST BMD (bone mineral density); type: in vivo
[4] = tested on: ovulation; experiment: Ovulation inhibition in intact cycling female rats; type: in vivo
[5] = tested on: vaginal tissue; experiment: Allen-Doisy test; type: in vivo
[6] = tested on: circulating levels of LH and FSH; experiment: 4-week multiple dose study in ovariectomized female rats; type: in vivo, rat
[7] = tested on: estrogen receptors in the CNS; experiment: Lordosis model (facilitation of female sexual behaviour); type: in vivo

## CCC[C@@H]1Cc2cc(O)ccc2[C@H]2CC[C@@]3(C)[C@@H](C[C@H]4CCC(=O)C[C@]43O)[C@H]12 [Compound 10, (7α,16β,17α)-3,17-dihydroxy-7-propyl-16,24-cyclo-19,21-dinorchola-1,3,5(10)-trien-22-one]
[1]; pregnant rats, oral gavage, 0.1 mg/kg
  minor defects, incidence of wavy ribs: 4/153
[1]; pregnant rats, oral gavage, 0.1 mg/kg/day up to and including 10 mg/kg/day
  body weight gain of the dams: significant reduction in body weight gain
[1]; pregnant rats, oral gavage, 0.3 mg/kg, based on a total of 13 fetuses
  effects (fetal defects): No effects
[1]; pregnant rats, oral gavage, treated groups
  major defects (fetuses): No major defects
[1]; preliminary embryofetal development study, up to a dose of 0.3 mg/kg
  teratogenicity in the rat: no evidence of teratogenicity
[2]
  Histopathology scores of endometrial biopsies: mostly atrophic or inactive endometrium with some subjects showing conversion to secretory (P-type) endometrium
  signs of hyperplasia (endometrium): no signs of hyperplasia
[3]
  AOST BMD (rat) MAD p.o.: 0.12 mg/kg.day
[4]
  Ovulation Inhibition (rat) MAD p.o.: 0.10 mg/kg.day
[5]
  Allen-Doisy (rat) MAD p.o.: 0.15 mg/kg.day
[6]; 4-week multiple dose, oral and subcutaneous application in gelatine/mannitol
  suppression of circulating levels of LH and FSH: effectively suppress
[6]; same series of studies
  behaviour on vaginal tissue, cholesterol metabolism and bone (bone mineral density, circulating osteocalcin): behaves as an estrogen receptor agonist
[7]
  Lordosis (rat) MAD p.o.: 0.14 mg/kg.day

## C#C[C@]1(O)CC[C@H]2[C@@H]3CCc4cc(O)ccc4[C@H]3CC[C@@]21C [EE, Ethynyl-Estradiol, reference compound]
[3]
  AOST BMD (rat) MAD p.o.: 0.020 mg/kg.day
[4]
  Ovulation Inhibition (rat) MAD p.o.: 0.022 mg/kg.day
[5]
  Allen-Doisy (rat) MAD p.o.: 0.016 mg/kg.day
[7]
  Lordosis (rat) MAD p.o.: 0.035 mg/kg.day

## CCC[C@@H]1Cc2cc(O)ccc2[C@H]2CC[C@@]3(C)[C@@H](C[C@H]4CC[C@H](O)C[C@]43O)[C@H]12 [Org 41621, (7α,16β,17α,22β)-7-propyl-16,24-cyclo-19,21-dinorchola-1,3,5(10)-triene-3,17,22-triol, reference compound]
[1]; pregnant rats, oral gavage, 0.09 mg/kg
  major fetal abnormalities (ribs, humerus and scapula): 3/273
[1]; pregnant rats, oral gavage, 0.15 mg/kg
  major fetal abnormalities (ribs, humerus and scapula): 11/216
